According to ChEMBL document CHEMBL4619763 (J Nat Prod, 2020):
Activity calls are given as the source filed them. The rule behind the calls is not given here.

What was measured:
Rattus norvegicus [1] = test: Diuretic activity in normotensive Wistar rat assessed as effect on urinary potassium excretion at 0.1 mg/kg, po administered via gavage for 7 days; format: ADME, organism-based; conditions: in vivo, 168 h
Rattus norvegicus [2] = test: Diuretic activity in normotensive Wistar rat assessed as decrease in urinary calcium excretion at 0.1 mg/kg, po administered via gavage for 7 days; format: functional, organism-based
Rattus norvegicus [3] = test: Diuretic activity in normotensive Wistar rat assessed as urine conductivity at 0.1 mg/kg, po administered via gavage after 8 hrs in presence of hydrochlorothiazide (reference value: 19.54 +/- 0.98 mS/cm); format: functional
Rattus norvegicus [4] = test: Diuretic activity in normotensive Wistar rat assessed as urine pH at 0.1 mg/kg, po administered via gavage after 8 hrs in presence of furosemide (reference value: 6.14 to 6.21); format: functional
[5] = Anti-urolithic activity in synthetic urine assessed as decrease in absorbance at 0.1 mg/mL after 30 mins relative to control; format: functional; set-up: scale not given: the % may be the effect or the level left
Rattus norvegicus [6] = test: Diuretic activity in normotensive Wistar rat assessed as urine pH at 0.1 mg/kg, po administered via gavage after 8 hrs in presence of indomethacin (reference value: 6.14 to 6.21); format: functional
Rattus norvegicus [7] = test: Diuretic activity in normotensive Wistar rat assessed as urinary sodium excretion at 0.1 mg/kg, po administered via gavage after 8 hrs in presence of L-NAME (reference value: 61.82 to 80.81 mmol/L); format: functional
Rattus norvegicus [8] = test: Diuretic activity in normotensive Wistar rat assessed as urinary potassium excretion at 1 mg/kg, po administered via gavage after 8 hrs (reference value: 22.39 to 24.21 mmol/L); format: ADME, organism-based; conditions: in vivo
Rattus norvegicus [9] = test: Diuretic activity in normotensive Wistar rat assessed as urinary calcium excretion at 0.1 mg/kg, […] administered via gavage after 8 hrs (reference value: 5.28 +/- 0.09 mg/dl); format: functional
[10] = Toxicity in normotensive Wistar rat assessed as changes in plasma ALT level at 0.1 mg/kg, po administered for 7 days; format: organism-based; conditions: in vivo, 168 h
Rattus norvegicus [11] = test: Diuretic activity in normotensive Wistar rat assessed as urinary chloride excretion at 0.1 mg/kg, po administered via gavage after 8 hrs (reference value: 135.10 to 143.70 mmol/L); format: functional
[12] = Toxicity in normotensive Wistar rat assessed as changes in urinary creatinine at 0.1 mg/kg, po administered for 7 days; format: organism-based; conditions: in vivo, 168 h
Rattus norvegicus [13] = test: Diuretic activity in normotensive Wistar rat assessed as urinary calcium excretion at 1 mg/kg, po administered via gavage after 8 hrs (reference value: 5.93 to 6.87 mg/dl); format: functional
Rattus norvegicus [14] = test: Diuretic activity in normotensive Wistar rat assessed as urinary potassium excretion at 1 mg/kg, ip […] after 8 hrs (reference value: 22.33 +/- 2.81 mmol/L); format: ADME, organism-based; conditions: in vivo
Rattus norvegicus [15] = test: Diuretic activity in normotensive Wistar rat assessed as urinary calcium excretion at 0.01 mg/kg, […] administered via gavage after 8 hrs (reference value: 5.28 +/- 0.09 mg/dl); format: functional
Rattus norvegicus [16] = test: Diuretic activity in normotensive Wistar rat assessed as urinary calcium excretion at 0.1 mg/kg, po administered via gavage after 8 hrs (reference value: 5.93 to 6.87 mg/dl); format: functional
Rattus norvegicus [17] = test: Diuretic activity in normotensive Wistar rat assessed as urinary chloride excretion at 0.1 mg/kg, po administered via gavage after 8 hrs in presence of hydrochlorothiazide (reference value: 135.10 to 143.70 mmol/L); format: functional
Rattus norvegicus [18] = test: Diuretic activity in normotensive Wistar rat assessed as urine conductivity at 1 mg/kg, ip after 8 hrs (reference value: 24.87 +/- 0.54 mS/cm); format: functional
[19] = Toxicity in spontaneous hypertensive Wistar rat assessed as changes in urea level in urine at 0.1 mg/kg, po administered for 7 days; format: organism-based; conditions: in vivo, 168 h
[20] = Toxicity in spontaneous hypertensive Wistar rat assessed as changes in plasma ALT level at 0.1 mg/kg, po administered for 7 days; format: organism-based; conditions: in vivo, 168 h
Rattus norvegicus [21] = test: Diuretic activity in normotensive Wistar rat assessed as urine conductivity at 0.1 mg/kg, ip after 8 hrs (reference value: 24.87 +/- 0.54 mS/cm); format: functional
Rattus norvegicus [22] = test: Diuretic activity in normotensive Wistar rat assessed as urinary sodium excretion at 1 mg/kg, ip after 8 hrs (reference value: 81.56 +/- 13.10 mmol/L); format: functional
Rattus norvegicus [23] = test: Diuretic activity in spontaneous hypertensive Wistar rat assessed as decrease in urinary calcium excretion at 0.1 mg/kg, po administered via gavage for 7 days; format: functional, organism-based
Rattus norvegicus [24] = test: Diuretic activity in normotensive Wistar rat assessed as urinary potassium excretion at 0.1 mg/kg, ip […] after 8 hrs (reference value: 22.33 +/- 2.81 mmol/L); format: ADME, organism-based; conditions: in vivo
Rattus norvegicus [25] = test: Diuretic activity in normotensive Wistar rat assessed as urine conductivity at 0.1 mg/kg, po administered via gavage after 8 hrs in presence of furosemide (reference value: 19.54 +/- 0.98 mS/cm); format: functional
[26] = Toxicity in spontaneous hypertensive Wistar rat assessed as changes in plasma chloride level at 0.1 mg/kg, po administered for 7 days; format: organism-based; conditions: in vivo, 168 h
Rattus norvegicus [27] = test: Diuretic activity in normotensive Wistar rat assessed as urinary chloride excretion at 0.1 mg/kg, po administered via gavage after 8 hrs in presence of L-NAME (reference value: 135.10 to 143.70 mmol/L); format: functional
Rattus norvegicus [28] = test: Diuretic activity in normotensive Wistar rat assessed as urine pH at 0.01 mg/kg, ip after 8 hrs (reference value: 6.05 +/- 0.22); format: functional
Rattus norvegicus [29] = test: Renal protective activity in spontaneous hypertensive Wistar rat assessed as reduction in hypertension-induced mesangial space disarrangement at 0.1 mg/kg, po administered via gavage for 7 days by hematoxylin and eosin staining based microscopic analysis; format: functional, organism-based
[30] = Toxicity in spontaneous hypertensive Wistar rat assessed as changes in plasma potassium level at 0.1 mg/kg, po administered for 7 days; format: organism-based; conditions: in vivo, 168 h
Rattus norvegicus [31] = test: Diuretic activity in normotensive Wistar rat assessed as increase in urinary sodium excretion at 0.1 mg/kg, po administered via gavage for 7 days; format: functional, organism-based
Rattus norvegicus [32] = test: Diuretic activity in normotensive Wistar rat assessed as urinary potassium excretion at 0.1 mg/kg, po administered via gavage after 8 hrs in presence of atropine (reference value: 22.39 to 24.21 mmol/L); format: ADME, organism-based; conditions: in vivo
Rattus norvegicus [33] = test: Diuretic activity in spontaneous hypertensive Wistar rat assessed as increase in urinary chloride excretion at 0.1 mg/kg, po administered via gavage for 7 days; format: functional, organism-based
Rattus norvegicus [34] = test: Diuretic activity in normotensive Wistar rat assessed as urinary potassium excretion at 0.1 mg/kg, po administered via gavage after 8 hrs (reference value: 22.39 to 24.21 mmol/L); format: ADME, organism-based; conditions: in vivo
Rattus norvegicus [35] = test: Diuretic activity in normotensive Wistar rat assessed as urinary chloride excretion at 1 mg/kg, ip […] after 8 hrs (reference value: 103.30 +/- 10.25 mmol/L); format: functional
Rattus norvegicus [36] = test: Diuretic activity in normotensive Wistar rat assessed as urinary sodium excretion at 0.1 mg/kg, po administered via gavage after 8 hrs in presence of amiloride (reference value: 61.82 to 80.81 mmol/L); format: functional
Rattus norvegicus [37] = test: Diuretic activity in normotensive Wistar rat assessed as increase in urine volume excretion at 0.1 to 1 mg/kg, po administered via gavage after 1 hr; format: functional, organism-based

With C[C@@H]1O[C@@H](Oc2c(-c3ccc(O)cc3)oc3cc(O)cc(O)c3c2=O)[C@H](O)[C@H](O)[C@H]1O [AFZELIN] the Activity (Rattus norvegicus [1]) was “Non-Toxic”, the Activity (Rattus norvegicus [2]) was “Active” and the Activity (Rattus norvegicus [3]) was 19.83 mS/cm. The pH (Rattus norvegicus [4]) was 6.25, the Activity [5] was 21.54% and the pH (Rattus norvegicus [6]) was 5.94. For the same molecule, the Activity (Rattus norvegicus [7]) was 75.14 mmol/L, the Activity (Rattus norvegicus [8]) was 22.5 mmol/L and the Activity (Rattus norvegicus [9]) was 5.51 mg/dL. For the same molecule, the Activity [10] was “Non-Toxic”, the Activity (Rattus norvegicus [11]) was 186.6 to 231.3 mmol/L and the Activity [12] was “Non-Toxic”. It also gave an Activity (Rattus norvegicus [13]) of 6.08 mg/dL, an Activity (Rattus norvegicus [14]) of 14.41 mmol/L and an Activity (Rattus norvegicus [15]) of 5.6 mg/dL. The Activity (Rattus norvegicus [16]) was 5.22 to 6.33 mg/dL, the Activity (Rattus norvegicus [17]) was 333.4 mmol/L and the Activity (Rattus norvegicus [18]) was 24.92 mS/cm. The Activity [19] was “Non-Toxic”, the Activity [20] was “Non-Toxic” and the Activity (Rattus norvegicus [21]) was 24.35 mS/cm. The Activity (Rattus norvegicus [22]) was 62.46 mmol/L, the Activity (Rattus norvegicus [23]) was “Active” and the Activity (Rattus norvegicus [24]) was 12.79 mmol/L. For the same molecule, the Activity (Rattus norvegicus [25]) was 20.62 mS/cm, the Activity [26] was “Non-Toxic” and the Activity (Rattus norvegicus [27]) was 336.1 mmol/L. For the same molecule, the pH (Rattus norvegicus [28]) was 5.82, the Activity (Rattus norvegicus [29]) was “Active” and the Activity [30] was “Non-Toxic”. The Activity (Rattus norvegicus [31]) was “Active”, the Activity (Rattus norvegicus [32]) was 16.83 mmol/L and the Activity (Rattus norvegicus [33]) was “Active”. For the same molecule, the Activity (Rattus norvegicus [34]) was 24.2 to 24.7 mmol/L, the Activity (Rattus norvegicus [35]) was 107.4 mmol/L and the Activity (Rattus norvegicus [36]) was 79.24 mmol/L. For the same molecule, the Activity (Rattus norvegicus [37]) was “Active”.
